Literature values, collected in patent publication US9295653B2, “Controlled agglomeration” (Veloxis Pharmaceuticals A/S, priority 2001, dated 2016).
Where a name gives a salt, the structure may show the parent alone.

Conditions: Table 1, Poorly-Soluble Drug Candidates; descriptive term

Structure (SMILES)	Solubility In Water
CN1CCCC(n2nc(Cc3ccc(Cl)cc3)c3ccccc3c2=O)CC1 (stereo not drawn) [Azelastine]	Insoluble
NC(=O)N1c2ccccc2C=Cc2ccccc21 [Carbamazepine]	Insoluble
C[C@@](Cc1ccc(O)c(O)c1)(NN)C(=O)O [Carbidopa]	Slightly
OCCN(CCO)c1nc(N2CCCCC2)c2nc(N(CCO)CCO)nc(N3CCCCC3)c2n1 [Dipyridamole]	Slightly
CC(CCc1ccc(O)cc1)NCCc1ccc(O)c(O)c1 (stereo not drawn) [Dobutamine]	Sparingly
CC(C(=O)O)c1ccc(-c2ccccc2)c(F)c1 (stereo not drawn) [Flurbiprofen]	Slightly
CC1=C(/C=C/C(C)=C/C=C/C(C)=C\C(=O)O)C(C)(C)CCC1 [Isotretinoin]	Insoluble
COC(=O)C1=C(C)NC(C)=C(C(=O)OC(C)C)C1c1cccc2nonc12 (stereo not drawn) [Isradipine]	Insoluble
CC(=O)N1CCN(c2ccc(OCC3COC(Cn4ccnc4)(c4ccc(Cl)cc4Cl)O3)cc2)CC1 (stereo not drawn) [Ketoconazole]	Insoluble
Cc1c(OCC(F)(F)F)ccnc1C[S+]([O-])c1nc2ccccc2[nH]1 (stereo not drawn) [Lansoprazole]	Insoluble
CC[C@H](C)C(=O)O[C@H]1C[C@@H](C)C=C2C=C[C@H](C)[C@H](CC[C@@H]3C[C@@H](O)CC(=O)O3)[C@H]21 [Lovastatin]	Insoluble
Cc1cccc(Nc2ccccc2C(=O)O)c1C [Mefenamic acid]	Slightly
COc1ccc2cc(CCC(C)=O)ccc2c1 [Nabumetone]	Insoluble
COc1ccc2[nH]c([S+]([O-])Cc3ncc(C)c(OC)c3C)nc2c1 (stereo not drawn) [Omeprazole]	Slightly
O=C1NC(=O)C(c2ccccc2)(c2ccccc2)N1 [Phenytoin]	Insoluble
CN1C(C(=O)Nc2ccccn2)=C(O)c2ccccc2S1(=O)=O [Piroxicam]	Sparingly

Same assay, conditions: Table 2, Poorly-Soluble Drugs with Low Bioavailability; descriptive term

Structure (SMILES)	Solubility In Water
COC(=O)C1=C(C)NC(C)=C(C(=O)OC(C)C)C1c1cccc2nonc12 (stereo not drawn) [Isradipine]	Insoluble
CC[C@H](C)C(=O)O[C@H]1C[C@@H](C)C=C2C=C[C@H](C)[C@H](CC[C@@H]3C[C@@H](O)CC(=O)O3)[C@H]21 [Lovastatin]	Insoluble
COc1ccc2cc(CCC(C)=O)ccc2c1 [Nabumetone]	Insoluble
CC(=O)S[C@@H]1CC2=CC(=O)CC[C@]2(C)[C@H]2CC[C@@]3(C)[C@@H](CC[C@@]34CCC(=O)O4)[C@H]12 [Spironolactone]	Insoluble

Conditions: Table 2; figure in brackets after 'Low'

Structure (SMILES)	Bioavailability
CCCC1O[C@@H]2C[C@H]3[C@@H]4CCC5=CC(=O)C=C[C@]5(C)[C@H]4[C@@H](O)C[C@]3(C)[C@]2(C(=O)CO)O1 (stereo partly drawn) [Budesonide]	Low (~15%)
COc1cc(N)c(Cl)cc1C(=O)NC1CCN(CCCOc2ccc(F)cc2)CC1OC (stereo not drawn) [Cisapride]	Low (35-40%)
O=[N+]([O-])O[C@H]1CO[C@H]2[C@@H]1OC[C@H]2O[N+](=O)[O-] [Isosorbide dinitrate]	Low (20-35%)
COc1ccc2cc(CCC(C)=O)ccc2c1 [Nabumetone]	Low (35%)
CC(=O)S[C@@H]1CC2=CC(=O)CC[C@]2(C)[C@H]2CC[C@@]3(C)[C@@H](CC[C@@]34CCC(=O)O4)[C@H]12 [Spironolactone]	Low (25%)

Same assay, conditions: in vivo

Structure (SMILES)	Bioavailability
COc1ccc(CCN2CCC(Nc3nc4ccccc4n3Cc3ccc(F)cc3)CC2)cc1 [Astemizole]	Low-moderate
CC(=O)OC[C@H]1O[C@@H]([S-])[C@H](OC(C)=O)[C@@H](OC(C)=O)[C@@H]1OC(C)=O.CCP(CC)CC.[Au+] [Auranofin]	Low (15-25%)
OC(CCN1CCCCC1)(c1ccccc1)C1CC2C=CC1C2 (stereo not drawn) [Biperiden]	Low (29-33%)
CN1CCC[C@@H]1CCO[C@](C)(c1ccccc1)c1ccc(Cl)cc1 [Clemastine fumarate]	Low (~39%)
CC1CC(OC(=O)C(O)c2ccccc2)CC(C)(C)C1 (stereo not drawn) [Cyclandelate]	Low
C#C[C@]1(O)CC[C@H]2[C@@H]3CCC4=Cc5oncc5C[C@]4(C)[C@H]3CC[C@@]21C [Danazol]	Low
CCCCCc1cc(O)c2c(c1)OC(C)(C)[C@@H]1CCC(C)=C[C@@H]21 [Dronabinol]	Low 10-20%)
NC(N)=Nc1nc(CSCCC(N)=NS(N)(=O)=O)cs1 [Famotidine]	Low (39-50%)
CCOC(=O)C1=C(C)NC(C)=C(C(=O)OC)C1c1cccc(Cl)c1Cl (stereo not drawn) [Felodipine]	Low (15%)
OCCN1CCN(CCCN2c3ccccc3Sc3ccc(C(F)(F)F)cc32)CC1 [Fluphenazine]	Low (2-3%)
COC(=O)C1=C(C)NC(C)=C(C(=O)OC(C)C)C1c1cccc2nonc12 (stereo not drawn) [Isradipine]	Low (15-24%)
Nc1ccc(O)c(C(=O)O)c1 [Mesalamine]	Low (~20%)
CCn1cc(C(=O)O)c(=O)c2cc(F)c(N3CCNCC3)cc21 [Norfloxacin]	Low (30-40%)
OCCN1CCN(CCCN2c3ccccc3Sc3ccc(Cl)cc32)CC1 [Perphenazine]	Low
CN[C@H]1CC[C@@H](c2ccc(Cl)c(Cl)c2)c2ccccc21 [Sertraline]	Low (<44%)
C[C@]12CC[C@H]3[C@@H](CCC4=CC(=O)CC[C@@]43C)[C@@H]1CC[C@@H]2O [Testosterone]	Low
